Source: US20070128217A1 (priority 2003, published 2007)

Assays:
[1] = test system: control sera (pooled serum of ten healthy LUMC hospital workers; commercial negative donor pooled serum from the Dutch bloodbank); type: binding, human; design: Binding of Control serum LUMC to linear peptides / Binding of Control serum Blood-bank to linear peptides / Binding of Control serum LUMC to looped peptides / Binding of Control Serum Blood-Bank to Looped peptides / Binding of Control serum LUMC to linear peptides of the protein M of SARS-CoV Urbani / Binding of Control serum Blood-bank to linear peptides of the protein M of SARS-CoV Urbani / Binding of Control serum LUMC to looped peptides of the protein M of SARS-CoV Urbani / Binding of Control Serum Blood-Bank to Looped peptides of the protein M of SARS-CoV Urbani: unit not given here
[2] = test system: rabbit serum obtained by immunizing a rabbit with the SARS-CoV strain Frankfurt 1; type: binding; design: Binding of a rabbit serum to linear peptides / Binding of a rabbit serum to looped peptides / Rabbit serum linear peptides / Rabbit serum looped peptides / Binding of a rabbit serum to linear peptides of protein N of SARS-CoV Urbani (Rabbit serum linear peptides) / Binding of a rabbit serum to looped/cyclic peptides of protein N of SARS-CoV Urbani (Rabbit serum looped peptides): unit not given here

Row | Sequence | Binding of Control Serum Blood-Bank to Looped peptides [1] | Binding of Control serum Blood-bank to linear peptides [1] | Binding of Control serum LUMC to linear peptides [1] | Binding of Control serum LUMC to looped peptides [1] | Binding of a rabbit serum to linear peptides [2] | Binding of a rabbit serum to looped peptides [2] | Binding of Control Serum Blood-Bank to Looped peptides of the protein M of SARS-CoV Urbani [1] | Binding of Control serum Blood-bank to linear peptides of the protein M of SARS-CoV Urbani [1] | Binding of Control serum LUMC to linear peptides of the protein M of SARS-CoV Urbani [1] | Binding of Control serum LUMC to looped peptides of the protein M of SARS-CoV Urbani [1] | Rabbit serum linear peptides [2] | Rabbit serum looped peptides [2] | Binding of Control Serum Blood-Bank to Looped peptides of the protein X3 of SARS-CoV Urbani [1] | Binding of Control serum Blood-bank to linear peptides of the protein X3 of SARS-CoV Urbani [1] | Binding of Control serum LUMC to linear peptides of the protein X3 of SARS-CoV Urbani [1] | Binding of Control serum LUMC to looped peptides of the protein X3 of SARS-CoV Urbani [1] | Recognition of the peptide by the rabbit serum [2]
1 | RIGTQVLKTMSLYMA | 0.6 | 0.8 | 0.5 | 0.5 | 0.4 | 0.5 | – | – | – | – | – | – | – | – | – | – | –
2 | PTVYVYSRVKNLNSS | 1.1 | 0.8 | 0.5 | 0.8 | 0.7 | 0.7 | – | – | – | – | – | – | – | – | – | – | –
3 | TGGIAIAMACIVGLM | – | – | – | – | – | – | 1.1 | 1.1 | 0.6 | 1.1 | 0.5 | 0.3 | – | – | – | – | –
4 | TVYVYSRVKNLNSSE | 0.7 | 0.5 | 0.3 | 0.9 | 0.8 | 0.3 | – | – | – | – | – | – | – | – | – | – | –
5 | VIISSIVRQLFKPLT | – | – | – | – | – | – | – | – | – | – | 0.5 | 0.3 | 0.7 | 0.8 | 0.7 | 0.8 | –
6 | IMRTFRIAIWNLDVI | – | – | – | – | – | – | – | – | – | – | 0.4 | 0.6 | 0.9 | 0.8 | 0.8 | 0.8 | –
7 | AEILIIIMRTFRIAI | – | – | – | – | – | – | – | – | – | – | 0.3 | 0.0 | 0.7 | 0.7 | 0.4 | 0.8 | –
8 | TPKLKEDYQIGGYSE | 0.7 | 0.5 | 0.6 | 0.9 | 0.1 | 1.2 | – | – | – | – | – | – | – | – | – | – | –
9 | GRCDIKDLPKEITVA | – | – | – | – | – | – | 1.0 | 0.5 | 0.1 | 0.9 | 0.0 | 0.1 | – | – | – | – | –
10 | KLKEDYQIGGYSEDR | 0.5 | 0.5 | 0.5 | 0.6 | 0.1 | 0.5 | – | – | – | – | – | – | – | – | – | – | –
11 | YFVCWHTHNYDYCIP | 0.6 | 0.6 | 0.7 | 0.6 | 0.1 | 0.6 | – | – | – | – | – | – | – | – | – | – | –
12 | IIIMRTFRIAIWNLD | – | – | – | – | – | – | – | – | – | – | 0.4 | 0.5 | 0.8 | 0.9 | 0.9 | 0.8 | –
13 | ATFFIFNKLVKDPPN | 0.8 | 0.5 | 0.5 | 0.8 | 0.1 | 0.6 | – | – | – | – | – | – | – | – | – | – | –
14 | TAQPVKIDNASPAST | 0.5 | 0.7 | 0.6 | 0.6 | 0.1 | 0.4 | – | – | – | – | – | – | – | – | – | – | –
15 | MDPIYDEPTTTTSVP | 0.3 | 0.6 | 0.5 | 0.3 | 0.1 | 0.3 | – | – | – | – | – | – | – | – | – | – | –
16 | CWHTHNYDYCIPYNS | 0.6 | 0.6 | 0.7 | 0.6 | 0.1 | 0.7 | – | – | – | – | – | – | – | – | – | – | –
17 | GVANPAMDPIYDEPT | 0.5 | 0.4 | 0.3 | 0.6 | 0.1 | 0.6 | – | – | – | – | – | – | – | – | – | – | –
18 | PSGTYEGNSPFHPLA | 0.8 | 0.9 | 0.7 | 0.9 | – | – | – | – | – | – | 0.5 | 0.5 | – | – | – | – | –
19 | GYSEDRHSGVKDYVV | 0.6 | 0.8 | 0.8 | 0.6 | 0.1 | 0.3 | – | – | – | – | – | – | – | – | – | – | –
20 | NYKLNTDHAGSNDNI | – | – | – | – | – | – | 0.6 | 0.7 | 0.5 | 0.8 | 0.5 | 0.0 | – | – | – | – | –
21 | TTKLVVILRIGTQVL | 0.6 | 0.3 | 0.3 | 0.7 | – | – | – | – | – | – | – | – | – | – | – | – | recognized
22 | HYQECVRGTTVLLKE | 0.9 | 0.8 | 0.7 | 1.0 | – | – | – | – | – | – | 0.5 | 0.5 | – | – | – | – | –
23 | CAYCCNIVNVSLVKP | 0.9 | 1.1 | 0.7 | 0.7 | 0.6 | 0.2 | – | – | – | – | – | – | – | – | – | – | –
24 | SSGVANPAMDPIYDE | 0.7 | 0.5 | 0.5 | 0.7 | 0.1 | 0.6 | – | – | – | – | – | – | – | – | – | – | –
25 | HQTAAFRDVLVVLNK | 0.8 | 0.5 | 0.9 | 0.6 | – | – | – | – | – | – | 0.4 | 0.8 | – | – | – | – | –
26 | VNVSLVKPTVYVYSR | 0.6 | 0.6 | 0.8 | 0.8 | 0.4 | 0.6 | – | – | – | – | – | – | – | – | – | – | –
27 | KLNTDHAGSNDNIAL | – | – | – | – | – | – | 1.0 | 0.9 | 0.7 | 0.9 | 0.4 | 0.3 | – | – | – | – | –
28 | RQLFKPLTKKNYSEL | – | – | – | – | – | – | – | – | – | – | 0.3 | 0.5 | 0.9 | 0.9 | 0.8 | 0.7 | –
29 | VCWHTHNYDYCIPYN | 0.7 | 0.7 | 0.8 | 0.6 | 0.1 | 0.6 | – | – | – | – | – | – | – | – | – | – | –
30 | TKKNYSELDDEEPME | – | – | – | – | – | – | – | – | – | – | 0.2 | 0.1 | 0.4 | 0.8 | 0.4 | 0.9 | –
